Assay results as given in patent US12384777B2 (Tay Therapeutics Limited, priority 2019, dated 2025).

Legend:
[1] = Skin penetration (Franz cell); format: in vitro ADME; conditions: epidermis of pig/human skin after 24 hour exposure
Experimental: A dosing solution was prepared for each test compound at a saturated concentration in an appropriate formulation mixture. The positive control, caffeine (final concentration 10 mg/mL), was prepared in 50:50 transcutol/water. Warm, degassed phosphate buffered saline (PBS) was applied to the receiving chambers of each jacketed Franz cell (1 cm containing a magnetic stirring bar). Pig/Human skin was removed from −80° C. storage and cut to size (˜2 cm^2) using a scalpel. The skin was then allowed to thaw at RT before being placed into warmed PBS for 10 min. Each skin piece was then dried before being placed onto the orifice of the Franz cell, removing any bubbles that occurred. […]
A calibration line was prepared in PBS (5000 ng/mL-0.2 ng/mL). […] All samples were quantified using UPLC-MS/MS (Waters Xevo TQ-S).
The concentration of compound present at each time point was corrected for the addition of fresh buffer. By plotting the concentration of compound vs time, the J flux and T lag could be calculated (values for caffeine should be approximately J Flux: 0.9-1.1 μg/cm/hr, Tlag: 244-257 min, ˜20% of dose present in receiving chamber after 24 hrs, mass balance 70-90%).
Skin extraction samples were corrected for dilution factor and volume of extraction solution. The quantity of dose measured in skin layers and time point samples were used to measure the mass balance of the experiment.

BRD3(2) = BRD3(2) (Homo sapiens (Human), UniProt Q15059); test: Bromodomain binding assay, BRD3(2); conditions: single point, screened at 30 times Kd; lower numbers indicate stronger hits
Sequence of BRD3(2) (Q15059 306-415): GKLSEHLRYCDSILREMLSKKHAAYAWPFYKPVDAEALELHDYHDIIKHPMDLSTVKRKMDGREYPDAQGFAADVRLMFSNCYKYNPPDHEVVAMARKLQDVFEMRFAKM
Experimental: (§1) T7 phage strains displaying bromodomains were grown in parallel in 24-well blocks in an E. coli host derived from the BL21 strain. E. coli were grown to log-phase and infected with T7 phage from a frozen stock (multiplicity of infection=0.4) and incubated with shaking at 32° C. until lysis (90-150 min). The lysates were centrifuged (5,000×g) and filtered (0.2 μm) to remove cell debris. Streptavidin-coated magnetic beads were treated with biotinylated small molecule or acetylated peptide ligands for 30 min at RT to generate affinity resins for bromodomain assays. The ligated beads were blocked with excess biotin and washed with blocking buffer (SeaBlock (Pierce), 1% BSA, 0.05% Tween 20, 1 mM DTT) to remove unbound ligand and to reduce non-specific phage binding. Binding reactions were assembled by combining bromodomains, ligated affinity beads, and test compounds in 1× binding buffer (16% SeaBlock, 0.32×PBS, 0.02% BSA, 0.04% Tween 20, 0.004% Sodium azide, 7.9 mM DTT). Test compounds were prepared as 1000× stocks in 100% DMSO and subsequently diluted 1:25 in MEG. The compounds were then diluted directly into the assays such that the final concentrations of DMSO and MEG were 0.1% and 2.4%, respectively. All reactions were performed in polypropylene 384-well plates in a final volume of 0.02 ml. The assay plates were incubated at RT with shaking for 1 hr and the affinity beads were washed with wash buffer (1×PBS, 0.05% Tween 20). The beads were then re-suspended in elution buffer (1×PBS, 0.05% Tween 20, 2 μM non-biotinylated affinity ligand) and incubated at RT with shaking for 30 min. The bromodomain concentration in the eluates was measured by quantitative polymerase chain reaction (qPCR).
(§2) An 11-point 3-fold serial dilution of each test compound was prepared in 100% DMSO at 1000× final test concentration. […] Most dissociation constants were determined using a compound top concentration=10,000 nM. If the initial dissociation constant determined was <0.169 nM (the lowest concentration tested), the measurement was repeated with a serial dilution starting at a lower top concentration. […]

BRDT(2) = BRDT(2) (Homo sapiens (Human), UniProt Q58F21); test: Bromodomain binding assay, BRDT(2); conditions: single point, screened at 30 times Kd; lower numbers indicate stronger hits
Experimental: as §1, §2

BRD3(1) = BRD3(1) (Homo sapiens (Human), UniProt Q15059); test: Bromodomain binding assay, BRD3(1); conditions: single point, screened at 30 times Kd; lower numbers indicate stronger hits
Sequence of BRD3(1) (Q15059 34-140): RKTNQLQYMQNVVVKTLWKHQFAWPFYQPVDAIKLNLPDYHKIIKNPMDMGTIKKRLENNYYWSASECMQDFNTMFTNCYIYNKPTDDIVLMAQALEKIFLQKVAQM
Experimental: as §1, §2

Epidermal concentration [1]: 27 µM | BRD3(2) % Ctrl (BRD3(2)): 0.05 % Ctrl | BRDT(2) % Ctrl (BRDT(2)): 3.8 % Ctrl | BRD3(1) % Ctrl (BRD3(1)): 0 % Ctrl
Structure (SMILES): Cn1cc(-c2cccc(O)c2Oc2ccccc2)c2cc[nH]c2c1=O [Example 1, 4-(3-hydroxy-2-phenoxyphenyl)-6-methyl-1,6-dihydro-7H-pyrrolo[2,3-c]pyridin-7-one]
